# Measured values from US9216974B2, “Phenoxazine derivatives and methods of use thereof” (Washington University, priority 2010, dated 2015).
# Entries after “also recorded” stand apart in the source; their conditions may differ. Like-named read-outs stand apart in the source and are kept apart here.
# Columns and labels:
# CAA = CAA (Homo sapiens, UniProt P05067); assay: Binding affinities for CAA performed on isolated vessels determined by fluorescent binding; conditions: for Ki: read-out: Binding affinity Ki; for Kd: read-out: Binding affinity KD
# Experimental: The isolation of cerebral vessels for biochemical analysis will be performed as described (78, 98). […] After the cerebellum is removed, the brain will be homogenized in fivefold excess of vessel buffer. An equal volume of 26% dextran will be added, and the tissue will be centrifuged at 6200×g for 30 min at 4° C. The resulting vessels form a pellet, whereas the parenchymal “vessel-free” material forms a solid, compact disc at the top of the solution. The […] will be resuspended in vessel buffer and passed over a 40-μm nylon mesh to capture vessels. Vessel and parenchymal material will be lysed in 5 M guanidine, 50 mM Tris, pH 8, with protease inhibitor cocktail (Roche) for 3 hr.
# [1] = molecular target: CAA (cerebrovascular Aβ deposits) (Homo sapiens, UniProt P05067); assay: In situ binding assay in fixed brain tissue, CAA; design: species or system Tg2576 mice
# Source text: (§1) Tg2576 mice are a well characterized mouse model of AD and CAA. They develop congophilic Aβ aggregates within neuritic plaques and leptomeningeal and cortical penetrating arteries at 11 months of age (Hsiao et al., 1996; Kawarabayashi et al., 2001; Fryer et al., 2005; Han et al., 2008).
# (§2) The Ki values for CAA vs. neuritic plaques will be calculated utilizing the fluorescent amyloid-ligand methoxy-X34 and fluorescent microscopic method. […] Tissue sections (3 sections per reaction) will be then mounted and coverslipped. Photographs of methoxy-X34 binding images will be taken using a Nikon fluorescent microscope. The fluorescent intensity on cerebral amyloid deposits and neuritic plaques will be separately quantified using Image J software. Finally, Ki values will be calculated by plotting % bound vs. log concentrations of competitors followed by non-linear regression using the Graph Pad Prism software. The maximum binding will be obtained from the methoxy-X34 intensity in the absence of competitors, while non-specific binding will be detected by the fluorescent intensity in brain tissues incubated without methoxy-X34.
# In situ binding assay: Tg2576 mice or littermate controls at 15 months of age will be perfused with phosphatebuffered saline (PBS) for 5 min. Brains will be removed, fixed in 4% paraformaldehyde, and preserved in 30% glucose-PBS solution at 4° C. Brains will be coronally sectioned using a microtome and kept in cryoprotectant solution at −20° C. To label amyloid deposits, brain sections (3 sections per reaction) will be permeabilized with PBS containing 0.25% Triton X-100 for 20 min at room temperature, followed by incubation with 1 μM methoxy-X34 in the presence or absence of competitors at various concentrations (10-9-10-6 M). Sections will be subjected to fluorescent microscopy using a Nikon Eclipse C600 microscope. The fluorescent intensity of methoxy-X34 in vessels and neuritic plaques will be quantified using the ImageJ software. The binding affinity (Ki) will be calculated using the Graph Pad Prism software.
# [2] = assay type: physicochemical
# Experimental: Hydrophobicity affects drug absorption, bioavailability, hydrophobic drug-receptor interactions, metabolism of molecules, and their toxicity. […] The mixture will be incubated with agitation for 30 min until ionic and non-ionic forms of test compound reach equilibrium. Two layers will be separated by centrifugation. Test compound's concentrations in octanol and water layers will be determined by UV/VIS spectrophotometry. The log Poct value will be calculated from log (concentration in n-octanol fraction/concentration in water fraction). Experiments will be repeated at least 3 times with triplicated samples.
# [3] = system: cerebrovascular Aβ deposits; assay: In vivo live imaging of CAA amyloid deposits through closed cranial window; conditions: topical application through cranial window, resorufin 2 μM, 16-month-old Tg2576 mice
# Experimental: FIG. 4 depicts in vivo live imaging of CAA amyloid deposits through closed cranial window. A,B. Closed cranial window was prepared on the right parietal bone of 16-month-old Tg2576 mice. Leptomeningeal arterioles (B) were subjected to live imaging using a fluorescent microscope. […] Scale bars: in C-E: 250 μm, in E: 100 μm.
# [4] = literature value; cited from earlier work
# [5] = normal rats; cited from earlier work
# CAA vs. neuritic plaques [6] = assay: Co-staining of fixed brain sections of Tg2576 mice with fluorescent amyloid dyes; assay type: binding; conditions: aged (16-month-old) Tg2576 mice
# Source text: as §1
# neuritic plaques = assay: In situ binding assay in fixed brain tissue, neuritic plaques; design: species or system Tg2576 mice; conditions: in situ binding assay at a concentration of 160 μM
# Source text: as §1, §2
# In situ binding assay: Tg2576 mice or littermate controls at 15 months of age will be perfused with phosphatebuffered saline (PBS) for 5 min. […] The fluorescent intensity of methoxy-X34 in vessels and neuritic plaques will be quantified using the ImageJ software. […]
# CAA vs. neuritic plaques [7] = assay: Staining of paraffin-embedded cortical brain sections of a human AD patient (3D6 and resorufin); assay type: binding; conditions: 3D6 co-labeling
# Source text: as §1
# [8] = system: Aβ deposits in cerebral vessels; assay: Multi-photon microscopy of whole brains stained with resorufin and phalloidin; conditions: 16-month-old Tg2576 mice
# [9] = normal mice, cited from earlier work
compound,measurement,setting,value
COc1ccc(OCCOc2ccc3nc4ccc(=O)cc-4oc3c2)cc1 [WC-5-45],Ki,CAA,421 nM
methoxyphenyl-resorufin,selective binding affinity for CAA deposits,[1],low nanomolar range
same,lipophilicity,[2],moderate lipophilicity
COc1cccc(COc2ccc3nc4ccc(=O)cc-4oc3c2)c1 [WC-5-4],Kd,CAA,537 nM
CC(=O)OCCOc1ccc2nc3ccc(=O)cc-3oc2c1 [WC-5-8],Ki,CAA,860 nM
"COc1cc(/C=C/c2ccc(O)cc2)ccc1/C=C/c1ccc(O)cc1 [methoxy-X04, reference compound]",fluorescent labeling of amyloid deposits in live mice,[3],staining was noted in both arterioles and senile plaques; also recorded: present in both cerebral arteries and parenchymal neuritic plaques
same,log Poct,[4],2.6
same,brain clearance estimated half life (t½),[5],~45 min
COCCOCCOc1ccc2nc3ccc(=O)cc-3oc2c1 [WC-5-43],Ki,CAA,407 nM
"COc1cc(C=Cc2ccc(O)c(C(=O)O)c2)ccc1C=Cc1ccc(O)c(C(=O)O)c1 [methoxy-X34, reference compound]",staining of CAA vs. neuritic plaques,CAA vs. neuritic plaques [6],labeled amyloid deposited in both CAA and neuritic plaques; also recorded: visualized both CAA and neuritic plaques
same,affinity for CAA vs. neuritic plaques,[1]; in situ binding assay,almost an equal affinity for both CAA and neuritic plaques
"O=c1ccc2nc3ccc(O)cc3oc-2c1 [Resorufin, resorufin]",staining of CAA vs. neuritic plaques,CAA vs. neuritic plaques [6],CAA>>>neuritic plaques
same,staining of CAA vs. neuritic plaques,CAA vs. neuritic plaques [6]; listed as resorufin,selectively bound fibrillar amyloid-laden arterioles
same,binding to neuritic plaques,neuritic plaques,negligible
same,log Poct,[2]; 30 min,0.427
same,staining of arterioles vs. neuritic plaques in human AD brain,CAA vs. neuritic plaques [7],selectively labeled 3D6-immunoreactive amyloid deposits in arterioles but less likely neuritic plaques; also recorded: prominent in 3D6-positive cerebral arterioles but was rarely seen in 3D6-positive neuritic plaques
same,fluorescent labeling of amyloid deposits in live mice,[3],selectively labeled amyloid deposits in arterioles
same,fluorescent labeling of amyloid deposits in live mice,[3]; listed as resorufin,marked fluorescent labeling within the walls of leptomeningeal arteries (but not in neuritic plaques); also recorded: visualized cerebrovascular Aβ deposits
same,intensity of resorufin staining by vessel type,[8],greater in pial arterioles than in penetrating arterioles or capillaries
O=c1ccc2nc3ccc(OCc4cn(CCF)nn4)cc3oc-2c1 [WC-5-3],Kd,CAA,2380 nM
C#COc1ccc2nc3ccc(=O)cc-3oc2c1 [WC-5-1],Kd,CAA,828 nM
same,Ki,CAA,4610 nM
[11CH3]Nc1ccc(-c2nc3ccc(O)cc3s2)cc1 [[^11C]PIB],brain level,[9]; 2 min after injection,3.2 % ID/g
same,brain level,[9]; 60 min,0.21 % ID/g
same,fraction in the brain cleared,[9]; within 60 min,93%
phenyl-resorufin,selective binding affinity for CAA deposits,[1],low nanomolar range
same,lipophilicity,[2],moderate lipophilicity
"CCOc1ccc2nc3ccc(=O)cc-3oc2c1 [Ethoxy-resorufin, 7-ethoxyresorufin]",selective binding affinity for CAA deposits,[1],low nanomolar range
same,Ki,"[1]; preliminary studies, read-out: binding affinity (Ki) for cerebrovascular Aβ deposits",247 nM
same,lipophilicity,[2],moderate lipophilicity
O=c1ccc2nc3ccc(OCCBr)cc3oc-2c1 [WC-5-9],Kd,CAA,927 nM
O=c1ccc2nc3ccc(OCc4ccc(I)cc4)cc3oc-2c1 [WC-5-31],Kd,CAA,> 10000 nM
COCCOc1ccc2nc3ccc(=O)cc-3oc2c1 [WC-5-42],Ki,CAA,347 nM
COc1ccc2nc3ccc(=O)cc-3oc2c1 [Methoxy-resorufin],Ki,CAA,4680 nM
O=c1ccc2nc3ccc(OCCF)cc3oc-2c1 [WC-5-2],Kd,CAA,800 nM
COc1ccc(COc2ccc3nc4ccc(=O)cc-4oc3c2)cc1 [WC-5-5],Ki,CAA,218 nM
COc1ccc(OCCOCCOc2ccc3nc4ccc(=O)cc-4oc3c2)cc1 [WC-5-47],Ki,CAA,> 10000 nM
